Measured values taken from US20060160893A1, “Method for enhancing the quality of berry fruit” (priority 2001, published 2006).

Columns and labels:
[1] = tested on: Botrytis gray mold of red raspberry; assay: Example 6: field application, Botrytis gray mold of red raspberry, storage evaluation; format: in vivo
Description: (§1) All examples are conducted under field conditions using accepted grower practices. The mixtures of I and II are applied to field grown plants, not as a post harvest berry treatment.
(§2) The use of corrected means is standard practice in field evaluations of pesticides. Corrected means are calculated as follows: [formula]
(§3) In the following examples, Fungicide A=a mixture of cyprodinil (I) and fludioxonil (II) (mixing ratio 1.5:1) applied as a 62.5% by weight water dispersible granule (WG) formulation.
Fungicide A is applied to field grown red raspberry and shelf-life evaluations made.
Healthy berries are harvested from each treatment and placed into storage and evaluated for Botrytis control (see table below).

[2] = tested on: Botrytis gray mold of strawberry; assay: Example 1: field application, Botrytis gray mold of strawberry, cool storage shelf-life evaluation; format: in vivo; settings: for % Control: 7 day storage, relative to untreated check
Description: as §1, §2, §3
Performance of Fungicide a Against Botrytis Gray Mold of Strawberry. Fungicide A is applied in the field; berries are then harvested and placed into cool storage for shelf-life evaluations (no additional sprays were made after harvest).

For O=C1C2CC=CCC2C(=O)N1SC(Cl)(Cl)Cl (stereo not drawn) [Captan, captan], the “% Botrytis Infect Berries (6 Day Storage Rating)” value [1] was 88.2%, the “% Botrytis Disease Control (6 Day Storage Rating)” value ([1]; relative to untreated check) was 7% and the “% Control” value ([2]; inoculated) was 28%. The “% Control” value ([2]; non-inoculated) was 70%, the “% Pest Incidence Fruit Rating 7 Day Storage Rating Inoculated” value ([2]; strawberry variety 'Chandler', inoculated) was 51% and the “% Pest Incidence Fruit Rating 7 Day Storage Rating Non-inoculated” value ([2]; strawberry variety 'Chandler', non-inoculated) was 6%.
